Laboratory results reported in patent US6506876B1, “LTA4 hydrolase inhibitor pharmaceutical compositions and methods of use” (G.D. Searle & Co., priority 1994, dated 2003).
“And” between values parts separate entries of the source, which are not always exact repeats. Equal entries are not always repeated. Structures can show the parent of a compound that is named as a salt.

Each molecule was assayed against T1, recombinant human LTA4 hydrolase (rhLTA4H) (Homo sapiens, UniProt P09960) (assay: Recombinant human LTA4 hydrolase assay for LTA4 hydrolase inhibitor activity). Conditions: Recombinant Human LTA4 Hydrolase Assay IC50 LTA4H, recombinant hLTA4H.
T1 sequence (P09960 1-611): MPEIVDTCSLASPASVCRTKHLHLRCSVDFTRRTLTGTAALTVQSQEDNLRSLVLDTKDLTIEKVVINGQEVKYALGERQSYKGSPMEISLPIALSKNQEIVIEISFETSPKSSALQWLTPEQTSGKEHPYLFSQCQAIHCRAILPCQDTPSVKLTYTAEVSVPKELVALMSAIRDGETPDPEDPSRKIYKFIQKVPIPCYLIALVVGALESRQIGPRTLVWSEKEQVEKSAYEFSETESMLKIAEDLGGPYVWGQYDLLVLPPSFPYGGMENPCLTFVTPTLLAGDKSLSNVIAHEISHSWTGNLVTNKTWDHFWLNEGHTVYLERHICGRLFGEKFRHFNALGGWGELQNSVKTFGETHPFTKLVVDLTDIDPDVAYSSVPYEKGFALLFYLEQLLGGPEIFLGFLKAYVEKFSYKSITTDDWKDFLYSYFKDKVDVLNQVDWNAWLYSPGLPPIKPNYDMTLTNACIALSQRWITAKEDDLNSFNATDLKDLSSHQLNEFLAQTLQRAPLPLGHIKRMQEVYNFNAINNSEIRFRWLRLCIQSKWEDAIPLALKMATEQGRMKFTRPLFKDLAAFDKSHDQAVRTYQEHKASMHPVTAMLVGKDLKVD
Experimental: One or more predetermined amounts of a compound of the invention were incubated in assay buffer (0.1 M potassium phosphate, 5 mg/ml fatty acid free BSA, 10% DMSO, pH 7.4) for 10 minutes at room temperature with 250 ng of recombinant hLTA4H to allow binding, if any, between the enzyme and inhibitor. The stock enzyme solution was 1 mg/ml LTA4 hydrolase, 50 mM Tris, pH 8.0, 150 mM NaCl, 2.5 mM beta-mercaptoethanol, 50% glycerol. […] Each reaction was carried out at room temperature for 10 minutes. The reaction was stopped by diluting 25 μl of the reaction mixture with 500 μl of the assay buffer without DMSO. LTB4 was quantified in the diluted sample by a commercially available enzyme-linked immunoassay [Caymen Chemical Co., Ann Arbor, Mich.] using the method recommended in the manufacturer's instructions and compared to the amount of LTB4 produced in a negative control (i.e., essentially identical conditions except without addition of an inhibitor compound). The IC50 was routinely calculated from the data produced.

IC50	Structure (SMILES)
2500 nM	CCOC(=O)[C@@H]1CCN(CCOc2ccc(Cc3ccccc3)cc2)[C@H](C)C1 (relative stereo) [Example 298]
11 nM	c1ccc(Cc2ccc(OCCn3ccc4ncnc-4c3)cc2)cc1 [340 A]
5700 nM	c1ccc(Cc2ccc(OCCCn3cnc4cccnc43)cc2)cc1 [341 A]
2200 nM	c1ccc(COc2ccc(OCCn3cccc4ncnc3-4)cc2)cc1 [346 C]
19000 nM	c1ccc(Oc2ccc(OCCCn3cnc4cccnc43)cc2)cc1 [350 A]
1080 nM	c1ccc(Oc2ccc(OCCCn3cnc4ccncc43)cc2)cc1 [351 A]
730 nM	c1ccc(Cc2ccc(OCCn3cnc4cncnc43)cc2)cc1 [357 B]
40 nM	c1ccc(Cc2ccc(OCCn3cncc4ncnc3-4)cc2)cc1 [357 D]
100000 nM	c1ccc(Cc2ccc3c(c2)CC(Cn2cnc4cccnc42)O3)cc1 (stereo not shown) [359 A]
10000 nM	c1ccc(Cc2ccc3c(c2)CC(Cn2cnc4ncccc42)O3)cc1 (stereo not shown) [359 B]
3500 nM	c1ccc(Cc2ccc3c(c2)CC(Cn2cccc4ncnc2-4)O3)cc1 (stereo not shown) [359 C]
5000 nM	c1ccc(Cc2ccc3c(c2)CC(Cn2nnc4ncccc42)O3)cc1 (stereo not shown) [360 C]
110 nM	c1ccc(Oc2ccc(OCCN3CCCC3)nc2)cc1 [Example 65, 5-phenoxy-2-[2-(1-pyrrolidinyl)ethoxy]pyridine]
6500 nM	c1ccc(Oc2ccc(NCCN3CCCC3)cc2)cc1 [Example 71, N-(4-phenoxyphenyl)-1-pyrrolidine ethanamine, monohydrochloride]
3000 nM	Clc1cc(OCCN2CCCC2)ccc1Cc1ccccc1 [Example 114]
3900 nM	Cc1cc(Cc2ccccc2)ccc1OCCN1CCCC1 [Example 117]
9000 nM	Cc1cc(OCCN2CCCC2)ccc1Cc1ccccc1 [Example 118]
4000 nM	Fc1cc(Cc2ccccc2)cc(F)c1OCCN1CCCC1 [Example 119]
8000 nM	Fc1cc(OCCN2CCCC2)c(F)cc1Cc1ccccc1 [Example 120]
7000 nM	COC(=O)c1cc(Cc2ccccc2)ccc1OCCN1CCCC1 [Example 123]
25000 nM	COc1cc(Cc2ccccc2)ccc1OCCN1CCCC1 [Example 124]

IC50	Structure (SMILES)
16000 nM	COc1ccccc1Cc1ccc(OCCN2CCCC2)cc1 [Example 129]
170 nM	c1cc(OCCN2CCCC2)ccc1Cc1ccc2c(c1)OCO2 [Example 130]
4300 nM	c1ccc2nc(Cc3ccc(OCCN4CCCC4)cc3)ccc2c1 [Example 131]
13 nM	Fc1ccccc1Cc1ccc(OCCN2CCCC2)cc1 [Example 141]
56 nM	Clc1cccc(Cc2ccc(OCCN3CCCC3)cc2)c1 [Example 143]
80 nM	COc1ccc(Cc2ccc(OCCN3CCCC3)cc2)cc1F [Example 144]
350 nM	c1ccc2cc(COc3ccc(OCCN4CCCC4)cc3)ccc2c1 [Example 200]
330 nM	c1ccc2ncc(COc3ccc(OCCN4CCCC4)cc3)cc2c1 [Example 201]
380 nM	Brc1ccc(COc2ccc(OCCN3CCCC3)cc2)cc1 [Example 203]
900 nM	Fc1ccc(COc2ccc(OCCN3CCCC3)cc2)cc1 [Example 205]
200 nM	Clc1cccc(COc2ccc(OCCN3CCCC3)cc2)c1 [Example 206]
220 nM	Fc1ccccc1COc1ccc(OCCN2CCCC2)cc1 [Example 207]
3000 nM	Cc1ccc(COc2ccc(OCCN3CCCC3)cc2)cc1 [Example 212]
1300 nM	COc1ccc(COc2ccc(OCCN3CCCC3)cc2)cc1 [Example 213]
2800 nM	c1ccc2c(COc3ccc(OCCN4CCCC4)cc3)cccc2c1 [Example 214]
5000 nM	NC(=O)C1CCN(CCOc2ccc(Cc3nccs3)cc2)CC1 [Example 231]
2100 nM	COc1ccc(Cc2ccc(OCCN3CCC(C(N)=O)CC3)cc2)cc1 [Example 232]
8000 nM	NC(=O)C1CCN(CCOc2ccc(Cc3ccc(Cl)cc3)cc2)CC1 [Example 234]
10000 nM	NC(=O)C1CCN(CCOc2ccc(Cc3ccc(F)cc3)cc2)CC1 [Example 235]
20000 nM	NC(=O)C1CCN(CCOc2ccc(Cc3cccnc3)cc2)CC1 [Example 236]
70 nM	NC(=O)C1CCCN(CCOc2ccc(Cc3ccccc3)cc2)C1 (stereo not shown) [Example 243]

IC50	Structure (SMILES)
7000 nM	c1ccc(Cc2ccc(OCCN3CCC4(CC3)OCCO4)cc2)cc1 [Example 246]
3200 nM	CCOC(=O)CCNC(=O)C1CCN(CCOc2ccc(Cc3ccccc3)cc2)CC1 [Example 249]
280 nM	CNC(=O)C1CCN(CCOc2ccc(Oc3ccccc3)cc2)CC1 [Example 255]
1250 nM	O=C(CCNCCCOc1ccc(Cc2ccccc2)cc1)OCc1ccccc1 [Example 261]
50000 nM	CCOC(=O)C1CCCN(CCOc2ccc(Cc3ccccc3)cc2)C1 (stereo not shown) [Example 270]
800 nM	CCOC(=O)CCNCCCCCOc1ccc(Cc2ccccc2)cc1 [Example 274]
330 nM	c1ccc(Cc2cnc3c(c2)CC(CN2CCCC2)O3)cc1 (stereo not shown) [Example 287]
43 nM	c1ccc(Oc2ccc3c(c2)CC(CN2CCCC2)O3)cc1 (stereo not shown) [Example 289]
7 nM	c1ccc(Cc2ccc3c(c2)CCC(CN2CCCC2)O3)cc1 (stereo not shown) [Example 292]
440 nM	COC(=O)CC1CC2CC1N(CCOc1ccc(Cc3ccccc3)cc1)C2 (stereo not shown) [Example 307]
25000 nM	CCOC(=O)C1CCN(CCOc2ccc(Cc3ccsc3)cc2)CC1 [Example 313]
1500 nM	COc1ccc(Cc2ccc(OCCN3CCC(C(N)=O)CC3)cc2)cc1F [Example 314]
2500 nM and 4200 nM	COC(=O)CNCCCOc1ccc(Cc2ccccc2)cc1 [Example 318]
14000 nM	COC(=O)CCN(C)CCCOc1ccc(Cc2ccc(F)cc2)cc1 [Example 332]
970 nM	c1ccc(Cc2ccc(OCCn3ccc4ncccc43)cc2)cc1 [Example 342]
11100 nM	c1ccc(Oc2ccc(OCCn3cnc4ccccc43)cc2)cc1 [Example 344]
120 nM	c1ccc(Cc2ccc(OCCn3ccnc3)cc2)cc1 [Example 352]
36 nM	[O-][n+]1ccc2ncn(CCOc3ccc(Cc4ccccc4)cc3)c2c1 [Example 364]
750 nM	CC(CN1CCCCC1)Oc1ccc(Cc2ccccc2)cc1 (stereo not shown) [Example 403]

Structure (SMILES)	IC50
c1ccc(Cc2ccc3c(c2)CC(Cn2nnc4cnccc42)O3)cc1 (stereo not shown) [361 B]	7000 nM
CCOC(=O)CC1CCN(CCCOc2ccc(Cc3ccccc3)cc2)CC1 [Example 302]	3000 nM
O=C(O)C1CCN(CCOc2ccc(Cc3ccccc3)s2)CC1 [Example 371]	860 nM

Same assay, conditions: at 25 μM

Recombinant Human LTA4 Hydrolase Assay, % at 25 μM	Structure (SMILES)
40% at 25	O=C(O)c1ccc(-c2ccc(OCCN3CCCC3)cc2)cc1 [Example 63, 4-[4-[2-(1-pyrrolidinyl)ethoxy]phenyl]benzoic acid]
52% at 25	O=C(O)c1ccc(Oc2ccc(OCCN3CCCC3)cc2)cc1 [Example 64, 4-[4-[2-(1-pyrrolidinyl)ethoxy]phenoxy]benzoic acid]
49% at 25	Clc1cccc(Cl)c1COc1ccc(OCCN2CCCC2)cc1 [Example 204]
4% at 25 μM	Cc1ccccc1COc1ccc(OCCN2CCCC2)cc1 [Example 210]

Same assay, conditions: read-out: Recombinant Human LTA4 Hydrolase Assay, % at 3 μM

inhibition at 3 µM [%]	Structure (SMILES)
31	c1ccc(COc2ccc(OCCn3cnc4cccnc43)cc2)cc1 [346 A]
51	Fc1ccc(Oc2ccc(OCCn3cnc4cccnc43)cc2)cc1 [354 A]
44	Cc1nc(COc2ccc(OCCN3CCCC3)cc2)cs1 [Example 202]
28	O=C(OCc1ccccc1)[C@@H]1CCCN1CCCOc1ccc(Cc2ccccc2)cc1 [Example 228]
14	CC(C)(C)OC(=O)C1CCCN1CCCOc1ccc(Cc2ccccc2)cc1 (stereo not shown) [Example 260]
53	CC(C)(C)OC(=O)CCNCCCOc1ccc(Cc2ccccc2)cc1 [Example 268]
40	c1ccc(Oc2ccc(OCCCn3cnc4ccccc43)cc2)cc1 [Example 343]
35	c1ccc(COc2ccc(OCCn3cnc4ccccc43)cc2)cc1 [Example 345]

Same assay, conditions: read-out: Recombinant Human LTA4 Hydrolase Assay, % at 100 μM

inhibition at 100 µM [%]	Structure (SMILES)
36	c1ccc(Cc2ccc3c(c2)CC(Cn2nnc4cccnc42)O3)cc1 (stereo not shown) [360 A]
19	c1ccc(Cc2ccc3c(c2)CC(Cn2nc4cccnc4n2)O3)cc1 (stereo not shown) [360 B]
4	NC(=O)C1CCN(CCCOc2ccc(Cc3ccccc3)cc2)CC1 [Example 226]
15	NC(=O)C1CCCN(CCCOc2ccc(Cc3ccccc3)cc2)C1 (stereo not shown) [Example 244]
41	CC1(CN2CCC(C(N)=O)CC2)Cc2cc(Cc3ccccc3)ccc2O1 (stereo not shown) [Example 286]
44	CCOC(=O)C1CCN(CCOc2ccc(Cc3cccnc3)cc2)CC1 [Example 311]
46	CCOC(=O)C1CCN(CCOc2ccc(Cc3ccc(F)cc3)cc2)CC1 [Example 312]
47	O=C(CNCCOc1ccc(Cc2ccccc2)cc1)OCc1ccccc1 [Example 319]

Structure (SMILES)	inhibition at 100 µM [%]
c1ccc(Cc2ccc3c(c2)CC(Cn2nc4ccncc4n2)O3)cc1 (stereo not shown) [361 A]	24
